{"source": "paper PMC2151519", "about": "(The Journal of General Physiology, 2006)", "assay_in_all_cases": "whole-cell patch clamp, outward current, CHO-K1", "type_in_all_cases": "cell-based", "key": {"TRPM6": {"biological_target": "TRPM6 (Homo sapiens, UniProt Q9BX84)", "sequence (Q9BX84 whole entry)": "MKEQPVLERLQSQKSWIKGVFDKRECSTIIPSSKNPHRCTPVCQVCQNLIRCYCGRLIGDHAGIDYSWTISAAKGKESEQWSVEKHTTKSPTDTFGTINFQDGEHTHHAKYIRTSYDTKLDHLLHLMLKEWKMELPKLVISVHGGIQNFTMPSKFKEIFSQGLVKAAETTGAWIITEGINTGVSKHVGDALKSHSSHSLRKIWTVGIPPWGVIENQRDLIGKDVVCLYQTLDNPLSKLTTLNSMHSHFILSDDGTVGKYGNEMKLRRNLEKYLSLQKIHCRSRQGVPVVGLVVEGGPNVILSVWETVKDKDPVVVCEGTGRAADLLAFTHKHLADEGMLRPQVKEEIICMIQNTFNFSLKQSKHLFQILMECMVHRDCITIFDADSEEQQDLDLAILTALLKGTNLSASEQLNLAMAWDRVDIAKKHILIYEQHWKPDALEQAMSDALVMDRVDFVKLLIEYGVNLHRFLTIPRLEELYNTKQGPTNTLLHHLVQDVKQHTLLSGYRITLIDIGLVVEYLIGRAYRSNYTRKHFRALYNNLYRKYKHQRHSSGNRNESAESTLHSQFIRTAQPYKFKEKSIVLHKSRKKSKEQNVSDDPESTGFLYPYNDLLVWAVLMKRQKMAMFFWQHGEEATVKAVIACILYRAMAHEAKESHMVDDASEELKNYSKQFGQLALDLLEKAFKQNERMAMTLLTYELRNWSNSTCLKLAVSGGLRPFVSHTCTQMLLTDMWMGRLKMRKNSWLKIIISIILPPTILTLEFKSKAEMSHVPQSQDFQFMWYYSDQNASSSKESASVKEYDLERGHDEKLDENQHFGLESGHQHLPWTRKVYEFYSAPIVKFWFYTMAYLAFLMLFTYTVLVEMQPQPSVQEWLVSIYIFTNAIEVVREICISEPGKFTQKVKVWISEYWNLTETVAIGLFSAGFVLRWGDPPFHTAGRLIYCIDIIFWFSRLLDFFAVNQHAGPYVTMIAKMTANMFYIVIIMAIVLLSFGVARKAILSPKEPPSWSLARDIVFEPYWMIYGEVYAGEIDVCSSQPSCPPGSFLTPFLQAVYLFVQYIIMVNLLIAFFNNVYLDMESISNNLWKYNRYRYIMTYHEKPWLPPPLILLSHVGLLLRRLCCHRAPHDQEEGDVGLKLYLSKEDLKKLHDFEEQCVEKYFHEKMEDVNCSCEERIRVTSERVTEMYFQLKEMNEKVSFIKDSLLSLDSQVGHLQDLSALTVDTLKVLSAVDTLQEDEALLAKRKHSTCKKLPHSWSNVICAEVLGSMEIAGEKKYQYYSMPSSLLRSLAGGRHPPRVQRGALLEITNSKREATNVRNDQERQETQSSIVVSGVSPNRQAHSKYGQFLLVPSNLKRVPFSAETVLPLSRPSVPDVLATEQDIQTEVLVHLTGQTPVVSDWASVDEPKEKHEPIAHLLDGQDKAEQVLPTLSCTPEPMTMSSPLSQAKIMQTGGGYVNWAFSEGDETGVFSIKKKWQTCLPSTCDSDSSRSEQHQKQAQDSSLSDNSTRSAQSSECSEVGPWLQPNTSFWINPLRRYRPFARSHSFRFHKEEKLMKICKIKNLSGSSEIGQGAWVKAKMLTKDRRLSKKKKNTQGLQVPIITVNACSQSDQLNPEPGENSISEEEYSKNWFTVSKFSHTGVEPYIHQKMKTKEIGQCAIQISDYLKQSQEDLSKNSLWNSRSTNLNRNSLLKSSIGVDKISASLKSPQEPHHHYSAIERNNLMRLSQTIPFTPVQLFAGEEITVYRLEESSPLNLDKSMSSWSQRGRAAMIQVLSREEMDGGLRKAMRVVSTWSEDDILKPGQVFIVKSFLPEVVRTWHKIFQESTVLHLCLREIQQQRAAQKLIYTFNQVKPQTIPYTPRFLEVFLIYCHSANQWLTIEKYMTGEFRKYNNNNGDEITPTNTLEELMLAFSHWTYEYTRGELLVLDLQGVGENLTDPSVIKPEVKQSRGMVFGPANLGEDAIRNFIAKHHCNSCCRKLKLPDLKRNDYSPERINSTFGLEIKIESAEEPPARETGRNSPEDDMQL"}, "TRPM6/7": {"biological_target": "TRPM6/7 (Homo sapiens; Mus musculus, UniProt Q923J1+Q9BX84)", "sequence (Q9BX84 whole entry)": "as above", "sequence (Q923J1 whole entry)": "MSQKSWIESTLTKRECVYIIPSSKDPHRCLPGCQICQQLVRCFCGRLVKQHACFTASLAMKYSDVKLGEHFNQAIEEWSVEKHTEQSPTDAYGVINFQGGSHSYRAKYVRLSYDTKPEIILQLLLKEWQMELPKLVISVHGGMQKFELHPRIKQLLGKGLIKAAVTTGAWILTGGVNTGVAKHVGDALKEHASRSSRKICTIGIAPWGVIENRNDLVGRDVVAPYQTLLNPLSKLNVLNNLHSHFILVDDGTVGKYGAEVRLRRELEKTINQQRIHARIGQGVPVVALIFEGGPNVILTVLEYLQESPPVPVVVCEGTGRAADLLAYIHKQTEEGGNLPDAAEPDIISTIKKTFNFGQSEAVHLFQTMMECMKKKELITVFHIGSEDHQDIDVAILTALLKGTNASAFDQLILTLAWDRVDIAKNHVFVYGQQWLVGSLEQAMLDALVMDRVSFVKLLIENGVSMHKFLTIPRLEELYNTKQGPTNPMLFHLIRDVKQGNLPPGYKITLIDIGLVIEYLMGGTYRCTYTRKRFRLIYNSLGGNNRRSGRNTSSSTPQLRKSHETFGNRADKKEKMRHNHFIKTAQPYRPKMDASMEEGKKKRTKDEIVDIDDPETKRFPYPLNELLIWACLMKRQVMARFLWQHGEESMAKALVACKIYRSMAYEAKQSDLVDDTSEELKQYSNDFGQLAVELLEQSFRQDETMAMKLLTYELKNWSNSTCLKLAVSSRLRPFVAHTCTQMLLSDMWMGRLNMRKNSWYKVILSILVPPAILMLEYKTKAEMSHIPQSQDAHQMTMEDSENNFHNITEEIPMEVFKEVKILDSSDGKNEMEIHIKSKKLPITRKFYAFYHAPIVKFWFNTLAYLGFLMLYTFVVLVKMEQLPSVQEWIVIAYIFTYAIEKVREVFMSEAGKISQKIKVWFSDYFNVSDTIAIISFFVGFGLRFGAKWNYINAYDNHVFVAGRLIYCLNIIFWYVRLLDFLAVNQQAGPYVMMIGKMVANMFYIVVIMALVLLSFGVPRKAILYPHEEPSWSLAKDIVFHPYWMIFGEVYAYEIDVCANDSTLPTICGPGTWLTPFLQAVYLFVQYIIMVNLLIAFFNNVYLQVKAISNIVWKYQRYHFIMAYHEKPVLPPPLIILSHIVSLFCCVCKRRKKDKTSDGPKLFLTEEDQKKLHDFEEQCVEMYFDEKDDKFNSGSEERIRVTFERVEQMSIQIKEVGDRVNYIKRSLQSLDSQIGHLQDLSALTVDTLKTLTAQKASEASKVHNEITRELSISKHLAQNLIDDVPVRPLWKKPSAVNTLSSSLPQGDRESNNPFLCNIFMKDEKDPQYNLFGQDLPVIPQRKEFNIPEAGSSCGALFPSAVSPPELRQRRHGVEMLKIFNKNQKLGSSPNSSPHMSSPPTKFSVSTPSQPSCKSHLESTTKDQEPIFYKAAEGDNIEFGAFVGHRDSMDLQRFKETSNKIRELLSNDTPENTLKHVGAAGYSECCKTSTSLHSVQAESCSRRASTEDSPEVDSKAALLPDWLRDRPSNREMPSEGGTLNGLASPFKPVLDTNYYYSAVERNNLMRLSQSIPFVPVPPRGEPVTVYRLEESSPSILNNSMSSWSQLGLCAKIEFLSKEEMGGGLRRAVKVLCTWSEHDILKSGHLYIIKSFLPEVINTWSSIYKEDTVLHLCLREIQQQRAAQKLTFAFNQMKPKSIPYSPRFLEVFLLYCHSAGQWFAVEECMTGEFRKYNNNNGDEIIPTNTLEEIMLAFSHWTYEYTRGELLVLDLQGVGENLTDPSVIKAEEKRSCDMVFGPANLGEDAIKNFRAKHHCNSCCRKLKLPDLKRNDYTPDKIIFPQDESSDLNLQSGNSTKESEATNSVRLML"}, "TRPM7": {"biological_target": "TRPM7 (Mus musculus, UniProt Q923J1)", "sequence (Q923J1 whole entry)": "as above"}}, "data": [{"smiles": "NCCOB(c1ccccc1)c1ccccc1", "note": "[2-APB]", "values": [{"measurement": "EC50", "setting": "TRPM6", "result": "205 ± 10", "unit": "µM"}, {"measurement": "EC50", "setting": "TRPM6/7", "result": "1600 ± 100", "unit": "µM"}, {"measurement": "IC50", "setting": "TRPM7", "result": "178 ± 14", "unit": "µM"}]}]}
